Results published in ChEMBL document CHEMBL4414570, “Indole-Diterpenoids with Protein Tyrosine Phosphatase Inhibitory Activities from the Marine-Derived Fungus Penicillium sp. KFD28” (J Nat Prod, 2019).
Activity calls are given as the source filed them. The calls are words filed in the database; no cut-off is given here.

What was measured:
[1] = system: K562; test: Cytotoxicity against human K562 cells assessed as cell viability incubated for 48 hrs by MTT assay; type: functional, cell-based
[2] = system: A549; test: Cytotoxicity against human A549 cells assessed as cell viability incubated for 48 hrs by MTT assay; type: functional, cell-based
[3] = system: SGC-7901; test: Cytotoxicity against human SGC7901 cells assessed as cell viability incubated for 48 hrs by MTT assay; type: functional, cell-based
[4] = system: HeLa; test: Cytotoxicity against human HeLa cells assessed as cell viability incubated for 48 hrs by MTT assay; type: functional, cell-based
[5] = biological target: Dual specificity protein phosphatase 3 (Homo sapiens) (UniProt P51452); test: Inhibition of recombinant human VHR expressed in Escherichia coli using p-nitrophenyl phosphate as substrate preincubated for 15 mins followed by substrate addition and measured after 60 mins
Chain of Dual specificity protein phosphatase 3 (Homo sapiens) (P51452 whole entry, looked up): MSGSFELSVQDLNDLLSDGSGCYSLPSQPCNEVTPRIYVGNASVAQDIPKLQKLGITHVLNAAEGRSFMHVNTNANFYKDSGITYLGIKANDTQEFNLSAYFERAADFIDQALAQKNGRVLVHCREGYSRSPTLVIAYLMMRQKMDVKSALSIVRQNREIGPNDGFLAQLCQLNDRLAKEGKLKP

[6] = biological target: T1, Tyrosine-protein phosphatase non-receptor type 1 (Homo sapiens, UniProt P18031); test: Inhibition of recombinant human PTP1B expressed in Escherichia coli using p-nitrophenyl phosphate as substrate preincubated for 15 mins followed by substrate addition and measured after 60 mins
T1 sequence (P18031 whole entry): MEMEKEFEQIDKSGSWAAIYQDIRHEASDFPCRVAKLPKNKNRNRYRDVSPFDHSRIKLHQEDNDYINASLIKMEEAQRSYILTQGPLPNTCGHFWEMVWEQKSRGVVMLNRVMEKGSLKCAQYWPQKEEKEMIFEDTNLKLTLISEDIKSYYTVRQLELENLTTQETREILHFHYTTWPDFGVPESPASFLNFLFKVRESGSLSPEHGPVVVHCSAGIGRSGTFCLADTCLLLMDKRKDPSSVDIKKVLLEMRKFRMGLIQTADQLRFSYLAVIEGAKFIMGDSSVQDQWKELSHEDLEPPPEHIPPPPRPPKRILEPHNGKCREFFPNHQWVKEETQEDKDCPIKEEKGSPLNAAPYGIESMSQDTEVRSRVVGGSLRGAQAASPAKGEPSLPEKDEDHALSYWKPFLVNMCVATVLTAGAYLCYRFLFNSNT

[7] = biological target: T2, Tyrosine-protein phosphatase non-receptor type 2 (Homo sapiens, UniProt P17706); test: Inhibition of recombinant human TCPTP expressed in Escherichia coli using p-nitrophenyl phosphate as substrate preincubated for 15 mins followed by substrate addition and measured after 60 mins
T2 sequence (P17706 whole entry): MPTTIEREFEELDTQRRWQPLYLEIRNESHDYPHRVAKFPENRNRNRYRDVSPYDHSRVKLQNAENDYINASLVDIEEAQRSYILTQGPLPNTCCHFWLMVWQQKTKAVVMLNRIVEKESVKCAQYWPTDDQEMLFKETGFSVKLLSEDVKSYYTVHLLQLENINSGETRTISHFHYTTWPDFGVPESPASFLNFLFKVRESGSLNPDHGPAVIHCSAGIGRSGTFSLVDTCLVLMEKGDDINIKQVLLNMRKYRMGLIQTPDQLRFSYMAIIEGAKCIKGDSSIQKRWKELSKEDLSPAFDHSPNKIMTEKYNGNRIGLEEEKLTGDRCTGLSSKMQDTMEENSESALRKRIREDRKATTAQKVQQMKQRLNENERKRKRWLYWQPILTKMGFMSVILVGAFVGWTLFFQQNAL

[8] = biological target: Receptor-type tyrosine-protein phosphatase S (Homo sapiens, UniProt Q13332); test: Inhibition of recombinant human PTPsigma expressed in Escherichia coli using p-nitrophenyl phosphate as substrate preincubated for 15 mins followed by substrate addition and measured after 60 mins
Chain of Receptor-type tyrosine-protein phosphatase S (Q13332 whole entry): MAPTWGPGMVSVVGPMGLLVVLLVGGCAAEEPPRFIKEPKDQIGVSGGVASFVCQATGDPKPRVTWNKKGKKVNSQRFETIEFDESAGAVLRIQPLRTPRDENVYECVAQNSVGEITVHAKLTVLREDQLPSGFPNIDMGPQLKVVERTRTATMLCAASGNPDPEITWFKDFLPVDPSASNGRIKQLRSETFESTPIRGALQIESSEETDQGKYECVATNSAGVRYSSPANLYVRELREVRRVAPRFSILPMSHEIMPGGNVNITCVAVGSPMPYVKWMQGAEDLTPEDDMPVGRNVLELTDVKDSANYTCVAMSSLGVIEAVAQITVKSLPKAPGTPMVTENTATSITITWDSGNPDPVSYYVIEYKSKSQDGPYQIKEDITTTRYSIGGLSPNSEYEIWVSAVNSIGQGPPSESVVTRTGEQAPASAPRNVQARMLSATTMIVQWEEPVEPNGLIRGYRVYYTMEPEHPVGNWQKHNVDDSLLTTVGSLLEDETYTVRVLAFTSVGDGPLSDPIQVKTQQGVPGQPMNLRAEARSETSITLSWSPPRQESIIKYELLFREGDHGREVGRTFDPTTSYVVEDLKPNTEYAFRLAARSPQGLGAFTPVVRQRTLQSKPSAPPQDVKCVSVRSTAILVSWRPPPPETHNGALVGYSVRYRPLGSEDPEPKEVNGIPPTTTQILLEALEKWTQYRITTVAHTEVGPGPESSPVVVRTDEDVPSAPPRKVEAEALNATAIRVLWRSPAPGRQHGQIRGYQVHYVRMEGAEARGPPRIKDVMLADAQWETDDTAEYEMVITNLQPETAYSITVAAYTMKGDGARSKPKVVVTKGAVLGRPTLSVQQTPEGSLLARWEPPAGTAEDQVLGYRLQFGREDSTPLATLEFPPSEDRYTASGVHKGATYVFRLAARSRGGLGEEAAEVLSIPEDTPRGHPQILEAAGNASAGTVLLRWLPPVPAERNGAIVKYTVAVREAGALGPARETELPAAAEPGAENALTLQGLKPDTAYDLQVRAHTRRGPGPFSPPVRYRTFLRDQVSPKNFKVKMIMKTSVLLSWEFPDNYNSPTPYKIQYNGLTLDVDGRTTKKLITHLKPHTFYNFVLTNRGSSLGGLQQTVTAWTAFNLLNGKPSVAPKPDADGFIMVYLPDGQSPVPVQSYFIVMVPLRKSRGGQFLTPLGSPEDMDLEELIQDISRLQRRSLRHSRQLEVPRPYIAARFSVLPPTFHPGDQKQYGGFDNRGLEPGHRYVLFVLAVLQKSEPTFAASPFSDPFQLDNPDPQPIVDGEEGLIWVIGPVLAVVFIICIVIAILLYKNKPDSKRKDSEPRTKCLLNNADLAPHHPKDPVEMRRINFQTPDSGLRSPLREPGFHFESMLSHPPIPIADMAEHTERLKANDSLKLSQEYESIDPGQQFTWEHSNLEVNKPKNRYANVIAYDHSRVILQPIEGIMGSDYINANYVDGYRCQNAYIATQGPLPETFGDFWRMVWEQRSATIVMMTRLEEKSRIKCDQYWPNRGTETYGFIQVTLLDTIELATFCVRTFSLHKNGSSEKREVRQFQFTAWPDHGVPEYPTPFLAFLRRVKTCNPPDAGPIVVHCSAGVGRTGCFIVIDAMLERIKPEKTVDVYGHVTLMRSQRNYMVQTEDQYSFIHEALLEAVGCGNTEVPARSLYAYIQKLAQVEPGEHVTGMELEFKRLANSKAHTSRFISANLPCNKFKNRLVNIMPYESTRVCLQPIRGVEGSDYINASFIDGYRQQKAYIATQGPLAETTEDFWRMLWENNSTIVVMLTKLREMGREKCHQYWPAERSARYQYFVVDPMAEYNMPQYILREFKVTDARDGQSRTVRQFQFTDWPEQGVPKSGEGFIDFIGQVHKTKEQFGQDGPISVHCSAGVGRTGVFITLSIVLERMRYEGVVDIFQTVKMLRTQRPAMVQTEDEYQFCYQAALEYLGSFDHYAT

SMILES	Activity [1]	Activity [2]	Activity [3]	Activity [4]	inhibition [5]	IC50 [6]	IC50 [7]	IC50 [8]
CC(C)(O)[C@@H]1CC[C@]2(C=O)[C@H](CC[C@@]3(C)[C@H]2CC[C@H]2Cc4c([nH]c5ccccc45)[C@@]23C)O1	inactive	inactive	inactive	inactive	inactive	–	–	–
CC(C)(O)[C@H]1O[C@H]2CC[C@@]3(C)[C@@](O)(CC[C@H]4C(=O)c5c([nH]c6ccccc56)[C@@]43C)C2=CC1=O	inactive	inactive	inactive	inactive	inactive	23 µM	35 µM	–
CC1(C)CC2=C(Cc3cc4c(cc32)NC(=O)[C@@]2(C)[C@@H](CC[C@@]3(O)C5=CC(=O)[C@@H](C(C)(C)O)O[C@H]5CC[C@@]32C)CC4=O)C(C)(C)O1	inactive	inactive	inactive	inactive	inactive	–	–	–
CC1(C)C[C@H]2[C@@H]3C(=O)CC[C@]4(C)[C@@]5(C)c6[nH]c7ccccc7c6C[C@@H]5CC[C@@]34O[C@@]2(O)[C@@H]1O	inactive	inactive	inactive	inactive	inactive	14 µM	–	38 µM
C[C@]12CC[C@@H]3OCC(=O)C=C3[C@]1(O)CC[C@H]1Cc3c([nH]c4ccccc34)[C@@]12C	inactive	inactive	inactive	inactive	inactive	27 µM	–	–
CC(C)(O)[C@H]1O[C@@]2(O)CC[C@@]3(C)C(=CC[C@H]4Cc5c([nH]c6ccccc56)[C@@]43C)C2=CC1=O	inactive	inactive	inactive	inactive	inactive	13 µM	37 µM	–
CC1(C)CC2=C(Cc3cc4c5c([nH]c4cc32)[C@@]2(C)[C@@H](CC[C@@]3(O)C4=CC(=O)[C@@H](C(C)(C)O)O[C@@]4(O)CC[C@@]32C)C5)C(C)(C)O1	inactive	inactive	inactive	inactive	inactive	–	–	–
CC(C)(O)[C@H]1O[C@H]2CC[C@@]3(C)[C@@](O)(CC[C@@H](CC(=O)c4ccccc4N)[C@]3(C)C(=O)O)C2=CC1=O	inactive	inactive	inactive	inactive	inactive	–	–	–
CC(C)(O)[C@@H]1CC=C2[C@H](CC[C@@]3(C)[C@H]2CC[C@H]2Cc4c([nH]c5ccccc45)[C@@]23C)O1	inactive	inactive	inactive	inactive	inactive	–	–	–
CC(C)(O)[C@@H]1OC(=O)C=C2[C@H](CC[C@@]3(C)[C@@]2(O)CC[C@H]2Cc4c([nH]c5ccccc45)[C@@]23C)O1	inactive	inactive	inactive	inactive	inactive	–	–	–
CC1(C)O[C@@]23CC[C@@]4(C)[C@@](O)(CC[C@H]5Cc6c([nH]c7ccccc67)[C@@]54C)C2=CC(=O)[C@H]1O3	inactive	inactive	inactive	inactive	inactive	–	–	–
CC1(C)C=C2c3cc4[nH]c5c(c4cc3C[C@@H]2C(C)(C)O1)C[C@@H]1CC[C@@]2(O)C3=CC(=O)[C@@H](C(C)(C)O)O[C@@]3(O)CC[C@]2(C)[C@@]51C	inactive	inactive	inactive	inactive	inactive	–	–	–
